Data reported in PMC5175396, “Cytotoxicity of Plumbagin, Rapanone and 12 other naturally occurring Quinones from Kenyan Flora towards human carcinoma cells” (BMC Pharmacology & Toxicology, 2016).
Like-named read-outs stand apart in the source and are kept apart here.

Tests used:
[1] = test system: A549 human non-small cell lung cancer (NSCLC) cell line; assay: Neutral red (NR) uptake cytotoxicity assay, A549; type: cell-based; conditions: for IC50: neutral red assay, 72 h incubation; for selectivity index A549: IC50 in CRL2120 normal fibroblasts divided by IC50 in A549
Text: (§1) Six human cancer cell lines and one normal cell line were used in this study. They included A549 human non-small cell lung cancer (NSCLC) cell line, obtained from the Institute for Fermentation, Osaka (IFO, Japan) and provided by Prof. Dr. Tansu Koparal (Anadolu University, Eskisehir, Turkey), SPC212 human mesothelioma cell line obtained from American Type Culture Collection (ATCC) and provided by Dr. Asuman Demiroğlu Zergeroğlu (Gebze Technical University, Kocaeli, Turkey), DLD-1 colorectal adenocarcinoma cell lines obtained from ATCC (CCL-221), Caco2 colorectal adenocarcinoma cells (ATCC, HTB-37) obtained from the ŞAP Institute of Turkey (Ankara), HepG2 hepatocarcinoma cells (ATCC, HB-8065) and MCF-7 breast adenocarcinoma cells (ATCC, HTB-22) were provided by Prof. Dr. Tansu Koparal (Anadolu University, Eskisehir, Turkey). The normal CRL2120 human skin fibroblasts were obtained from ATCC [CCD1094Sk (ATCC, CRL-2120)]. The cells were maintained as a monolayer in DMEM medium (Sigma-aldrich, Munich, Germany) medium supplemented with 10% fetal calf serum and 1% penicillin (100 U/mL)-streptomycin (100 μg/mL) in a humidified 5% CO2 atmosphere at 37 °C.
(§2) The cytotoxicity of samples was performed by NR uptake assay as previously described. This method is based on the ability of viable cells to incorporate and bind the supravital dye NR in the lysosomes. […] Briefly, cells were detached by treatment with 0.25% trypsin/EDTA (Invitrogen) and an aliquot of 1 × 10^4 cells was placed in each well of a 96-well cell culture plate (Thermo Scientific, Germany) in a total volume of 200 μL. The cells were allowed to attach overnight and subsequently treated with different concentrations of the 14 compounds. Each of the studied samples was immediately added in varying concentrations in additional 100 μL of culture medium to obtain a total volume of 200 μL/well. After 72 h incubation in humidified 5% CO2 atmosphere at 37 °C, the medium was removed and 200 μL fresh medium containing 50 μg/mL NR was added to each well and incubation continued for an additional 3 h at 37 °C in 5% CO2 atmosphere. The dye medium was then removed and each well was then washed rapidly with 200 μL phosphate buffer saline (PBS) followed by addition of 200 μL of acetic acid-water-ethanol in water (1:49:50). The plates were kept for 15 min at room temperature to extract the dye and then shaken for a few minutes on a GFL 3012 shaker (Gesellschaft für Labortechnik mbH, Burgwedel, Germany). Absorbance was measured on ELx 808 Ultra Microplate Reader (Biotek) equipped with a 540 nm filter. Each assay was done at least three times, with three replicates each. The viability was evaluated based on a comparison with untreated cells. The IC50 values represent the sample’s concentrations required to inhibit 50% of cell proliferation and were calculated from a calibration curve by linear regression using Microsoft Excel.

[2] = test system: Caco2 colorectal adenocarcinoma cells; assay: Neutral red (NR) uptake cytotoxicity assay, Caco-2; type: cell-based, human; conditions: Homo sapiens, Caco-2; neutral red assay, 72 h incubation
Text: as §1
as §2, with “lysosomes. The procedure is cheaper and more sensitive than other cytotoxicity tests.” for “lysosomes.”

[3] = test system: SPC212 human mesothelioma cell line; assay: Neutral red (NR) uptake cytotoxicity assay, SPC212; type: cell-based; conditions: for IC50: neutral red assay, 72 h incubation, read-out: IC50 SPC212; for selectivity index SPC212: IC50 in CRL2120 normal fibroblasts divided by IC50 in SPC212
Text: as §1
as §2, with “lysosomes. The procedure is cheaper and more sensitive than other cytotoxicity tests.” for “lysosomes.”

[4] = test system: normal CRL2120 human skin fibroblasts; assay: Neutral red (NR) uptake cytotoxicity assay, normal CRL2120 fibroblasts; type: cell-based; conditions: Skin fibroblast, 72 h incubation
Text: as §1
as §2, with “lysosomes. The procedure is cheaper and more sensitive than other cytotoxicity tests.” for “lysosomes.”

[5] = test system: DLD-1 colorectal adenocarcinoma cell lines; assay: Neutral red (NR) uptake cytotoxicity assay, DLD-1; type: cell-based, human; conditions: for IC50: Homo sapiens, DLD-1, neutral red assay, 72 h incubation, read-out: IC50 DLD-1; for selectivity index DLD-1: IC50 in CRL2120 normal fibroblasts divided by IC50 in DLD-1
Text: as §1
as §2, with “lysosomes. The procedure is cheaper and more sensitive than other cytotoxicity tests.” for “lysosomes.”

[6] = test system: MCF-7 breast adenocarcinoma cells; assay: Neutral red (NR) uptake cytotoxicity assay, MCF-7; type: cell-based, human; conditions: for IC50: neutral red assay, 72 h incubation, read-out: IC50 MCF-7; for selectivity index MCF-7: IC50 in CRL2120 normal fibroblasts divided by IC50 in MCF-7
Text: as §1
as §2, with “lysosomes. The procedure is cheaper and more sensitive than other cytotoxicity tests.” for “lysosomes.”

[7] = test system: six tested cancer cell lines (A549, SPC212, DLD-1, Caco-2, MCF-7, HepG2); assay: Neutral red uptake assay, statements over the six tested cancer cell lines; type: cell-based, human; conditions: for tested cancer cell lines in which recordable IC50 values were obtained: out of six cancer cell lines; for IC50: Homo sapiens, bound valid for all six cancer cell lines, neutral red assay
Text: as §1
as §2, with “lysosomes. The procedure is cheaper and more sensitive than other cytotoxicity tests.” for “lysosomes.”

[8] = test system: HepG2 hepatocarcinoma cells; assay: Neutral red (NR) uptake cytotoxicity assay, HepG2; type: cell-based, human; conditions: for IC50: Homo sapiens, HepG2, neutral red assay, 72 h incubation, read-out: IC50 HepG2; for selectivity index HepG2: IC50 in CRL2120 normal fibroblasts divided by IC50 in HepG2
Text: as §1
as §2, with “lysosomes. The procedure is cheaper and more sensitive than other cytotoxicity tests.” for “lysosomes.”

[9] = Neutral red (NR) uptake cytotoxicity assay, Caco-2; type: cell-based, human; conditions: human; IC50 in CRL2120 normal fibroblasts divided by IC50 in Caco-2; read-out: selectivity index Caco-2 (converted)
Text: as §1
as §2, with “lysosomes. The procedure is cheaper and more sensitive than other cytotoxicity tests.” for “lysosomes.”

Compound | tested cancer cell lines in which recordable IC50 values were obtained [7] | IC50 [7] | IC50 ([1]; Homo sapiens, A549, 72 h) | selectivity index A549 [1] | IC50 [2] | IC50 ([3]; Homo sapiens, 72 h) | selectivity index SPC212 [3] | IC50 [4] | IC50 [5] | IC50 ([6]; Homo sapiens, MCF7, 72 h) | IC50 [8] | IC50 [1] | selectivity ratio at 72 h [9] | selectivity index DLD-1 [5] | selectivity index MCF-7 [6] | selectivity indexes (CRL2120 vs carcinoma cells), lower bound over the cancer cell lines ([7]; IC50 CRL2120 / IC50 cancer cell line) | selectivity index HepG2 [8] | IC50 [3] | IC50 [6]
Cc1cc(O)c2c(c1)C(=O)c1cccc(O)c1C2=O [Compound 1, chrysophanol] | 2/6 |  | 52.2 ± 5.51 µM | > 3.01 | > 157 µM | 146 ± 10.6 µM | > 1.08 | > 157 µM | > 157 µM | > 157 µM | > 157 µM |  |  |  |  |  |  |  | 
COC(=O)c1c(O)cc2c(c1C)C(=O)c1c(O)cc(O)cc1C2=O [Compound 3, 3,6,8-trihydroxy-1-methylanthraquinone-2-carboxylic acid methyl ester] |  | > 120 µM | > 122 µM |  | > 122 µM | > 122 µM |  | > 122 µM | > 122 µM | > 122 µM | > 122 µM |  |  |  |  |  |  |  | 
CCCC1=C(O)C(=O)C=C(O)C1=O [Compound 6, 2,5-dihydroxy-3-propyl-2,5-cyclohexadiene-1,4-dione] | 1/6 |  | > 222 µM |  | > 222 µM | > 222 µM |  | > 222 µM | > 222 µM | 162 ± 11.4 µM | > 222 µM |  |  |  |  |  |  |  | 
CCCCC1=C(O)C(=O)C=C(O)C1=O [Compound 7, 2,5-dihydroxy-3-butyl-2,5-cyclohexadiene-1,4-dione] | 5/6 |  | 68.6 ± 7.55 µM | > 2.97 | 89.7 ± 8.8 µM | 87.9 ± 5.66 µM | > 2.32 | > 204 µM | > 204 µM | 64.6 ± 13.4 µM | 176 ± 28.5 µM |  | > 2.27 |  | > 3.16 |  | > 1.16 |  | 
CCCCCCCC1=C(O)C(=O)C=C(O)C1=O [Compound 8, 2,5-dihydroxy-3-heptyl-2,5-cyclohexadiene-1,4-dione] | 5/6 |  | 108 ± 17.9 µM |  | 63.9 ± 5.97 µM | < 10 µM |  | 117 ± 1.22 µM | > 168 µM | 38.8 ± 3.33 µM | 94.2 ± 2.7 µM |  | 2.27 |  | 3.16 |  | 1.16 |  | 
CCCCC=CCCCCCCCCCCCCCC1=C(OC)C(=O)C=C(OC)C1=O [Compound 12, 2,5 dimethoxy-6-(14-nonadecenyl)-1,4-benzoquinone] |  | > 120 µM | > 129 µM |  | > 129 µM | > 129 µM |  | > 129 µM | > 129 µM | > 129 µM | > 129 µM |  |  |  |  |  |  |  | 
COC1=CC(=O)C(O)=C(CCCCCCCC=CCCCCCCCC2=C(O)C(=O)C(C)=C(O)C2=O)C1=O [Compound 14, ardisiaquinone B] | 4/6 |  | 21.7 ± 1.5 µM | 3.29 | > 123 µM | 3.14 ± 0.78 µM | 22.72 | 71.3 ± 5.23 µM | 114 ± 3.68 µM | > 123 µM | 115 ± 4.29 µM |  |  | 0.62 |  |  | 0.62 |  | 

Now from value to molecule, other results behind:

tested cancer cell lines in which recordable IC50 values were obtained [7] | IC50 [7] | Compound | IC50 ([1]; Homo sapiens, A549, 72 h) | selectivity index A549 [1] | IC50 [2] | IC50 ([3]; Homo sapiens, 72 h) | selectivity index SPC212 [3] | IC50 [4] | IC50 [5] | IC50 ([6]; Homo sapiens, MCF7, 72 h) | IC50 [8] | IC50 [1] | selectivity ratio at 72 h [9] | selectivity index DLD-1 [5] | selectivity index MCF-7 [6] | selectivity indexes (CRL2120 vs carcinoma cells), lower bound over the cancer cell lines ([7]; IC50 CRL2120 / IC50 cancer cell line) | selectivity index HepG2 [8] | IC50 [3] | IC50 [6]
 | < 100 µM | Cc1cc(O)c2c(c1)C(=O)c1cc(O)cc(O)c1C2=O [Compound 2, emodin] | 99.3 µM | > 2.23 | 73.6 ± 3.52 µM | 99.3 ± 8.46 µM | > 1.49 | > 148 µM | 77.3 ± 8.77 µM | 37.6 ± 2.59 µM | 71.7 ± 4.52 µM | 66.3 ± 6.19 µM | > 2.01 | > 1.92 | > 3.94 | above 1.49 | > 2.07 |  | 
 | > 120 µM | CCC1=C(O)C(=O)C=C(O)C1=O [Compound 5, 2,5-dihydroxy-3-ethyl-2,5-cyclohexadiene-1,4-dione] | > 238 µM |  | > 238 µM | > 238 µM |  | 95.5 ± 5.64 µM | > 238 µM | > 238 µM | > 238 µM |  |  |  |  |  |  |  | 
 | < 100 µM | CCCCCCCCCCCCCCCC1=C(O)C(=O)C=C(O)C1=O [Compound 10, 2,5-dihydroxy-3-pentadecyl-2,5-cyclohexadiene-1,4-dione] | 43.3 ± 2.72 µM | > 2.87 | 27.8 ± 2.03 µM | < 10 µM | > 14.81 | > 124 µM | 51.2 ± 5.54 µM | 30.4 ± 8.64 µM | 48.4 ± 3.73 µM |  | > 4.47 | > 2.43 | > 4.09 |  | > 2.57 | 8.39 ± 0.48 µM | 
 | < 100 µM | CCCCCCCCCCCC1=C(O)C(=O)C=C(OC)C1=O [Compound 11, 2-hydroxy-5-methoxy-3-undecyl-1,4-benzoquinone] | 50.3 ± 2.6 µM | 0.88 | 38.9 ± 2.35 µM | 38.3 ± 3.23 µM | 1.15 | 44.2 ± 0.2 µM | 45.4 ± 4.89 µM | 22.6 µM | 61.3 ± 5.53 µM |  | 1.14 | 0.97 | 1.96 |  | 0.72 |  | 22.6 ± 1.57 µM
